One assay deals with T1, Thromboxane A2 receptor (Homo sapiens, UniProt P21731).
T1 sequence (P21731 whole entry): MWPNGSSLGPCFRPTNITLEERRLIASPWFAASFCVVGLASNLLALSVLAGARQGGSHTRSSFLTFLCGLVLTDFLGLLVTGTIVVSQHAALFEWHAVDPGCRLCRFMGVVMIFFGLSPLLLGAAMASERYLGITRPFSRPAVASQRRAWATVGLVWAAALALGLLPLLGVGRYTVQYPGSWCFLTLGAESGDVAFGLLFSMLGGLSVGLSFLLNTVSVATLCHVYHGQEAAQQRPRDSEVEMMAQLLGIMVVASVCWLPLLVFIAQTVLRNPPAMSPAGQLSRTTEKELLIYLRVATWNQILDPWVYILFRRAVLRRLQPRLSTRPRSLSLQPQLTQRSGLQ
Description: Thromboxane (TXA2) receptor antagonist activity using human platelet. To be noted: for Kb: read-out: pA2 (converted). It counts as functional.

In another assay the target is T2, Thromboxane-A synthase (Homo sapiens, UniProt P24557).
T2 sequence (P24557 whole entry): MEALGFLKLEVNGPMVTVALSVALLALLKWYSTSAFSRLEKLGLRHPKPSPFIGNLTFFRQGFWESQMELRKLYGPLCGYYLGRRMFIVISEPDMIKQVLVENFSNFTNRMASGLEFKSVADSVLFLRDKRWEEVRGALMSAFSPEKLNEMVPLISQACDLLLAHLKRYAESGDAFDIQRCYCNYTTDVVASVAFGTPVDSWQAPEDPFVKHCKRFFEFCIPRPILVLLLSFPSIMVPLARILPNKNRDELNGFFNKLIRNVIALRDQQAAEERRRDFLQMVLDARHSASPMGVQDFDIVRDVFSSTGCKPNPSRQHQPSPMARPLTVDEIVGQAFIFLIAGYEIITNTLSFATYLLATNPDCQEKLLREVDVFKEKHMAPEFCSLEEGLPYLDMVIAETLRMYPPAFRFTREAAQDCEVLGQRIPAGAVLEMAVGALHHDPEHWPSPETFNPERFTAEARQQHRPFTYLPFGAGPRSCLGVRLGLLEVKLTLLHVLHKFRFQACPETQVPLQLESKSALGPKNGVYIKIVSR
Description: Compound was tested for thromboxane TXA2 synthase inhibitory activity using human platelet.

In assay [1] the test system is Canis familiaris. Description: Compound was tested for plasma concentration ratio at 8 hr in conscious dogs at specified time intervals at a dose of 0.05 mg/kg. It counts as functional, Canis lupus familiaris.
Assay [2] has as its system Canis familiaris. Briefly: Compound was tested for plasma concentration ratio at 2 hr in conscious dogs at specified time intervals at a dose of 0.05 mg/kg. It counts as functional, Canis lupus familiaris.
The target in assay [3] is T3, Thromboxane-A synthase (Homo sapiens) (UniProt P24557).
T3 sequence (whole entry): T2 sequence (P24557 whole entry)
Description: (§1) Compound was evaluated for inhibition of TXA2 synthase by measuring collagen stimulated TXB2 production in the blood samples after 8 hr time at a dose of 1.0 mg/kg. Format: functional, organism-based. Details: dose 1 mg/kg. To be noted: Canis lupus familiaris.

The subject of assay [4] is Canis familiaris. Description: Compound was tested for plasma concentration ratio at 2 hr in conscious dogs at specified time intervals at a dose of 1.0 mg/kg. Format: functional, Canis lupus familiaris.
The target in assay [5] is T3, Thromboxane-A synthase (Homo sapiens). The assay is described as §1. It counts as functional, organism-based. Also on record: dose 1 mg/kg. To be noted: Canis lupus familiaris. The source holds these as a separate data set.
Assay [6] deals with Canis familiaris. Description: Compound was tested for plasma concentration ratio at 8 hr in conscious dogs at specified time intervals at a dose of 1.0 mg/kg. It counts as functional, Canis lupus familiaris.
In assay [7] the target is T3, Thromboxane-A synthase (Homo sapiens). Description: Compound was evaluated for inhibition of TXA2 synthase by measuring collagen stimulated TXB2 production in the blood samples after 2 hr time at a dose of 1.0 mg/kg. It counts as functional, organism-based. Details: dose 1 mg/kg. To be noted: Canis lupus familiaris.
The target is the same in assay [8]. Description: Compound was evaluated for inhibition of TXA2 synthase by measuring collagen stimulated TXB2 production in the blood samples after 2 hr time at a dose of 0.05 mg/kg. To be noted: Canis lupus familiaris. Also on record: dose 0.05 mg/kg. It counts as functional, organism-based.
Assay [9] has the same target. Description: Compound was evaluated for inhibition of TXA2 synthase by measuring collagen stimulated TXB2 production in the blood samples after 8 hr time at a dose of 0.05 mg/kg. To be noted: Canis lupus familiaris. Details: dose 0.05 mg/kg. Format: functional, organism-based.
Assay [10] concerns Canis familiaris. Description: Compound was tested ex vivo for plasma concentration ratio at 8 hr in conscious dogs at specified time intervals at a dose of 0.05 mg/kg. It counts as functional, Canis lupus familiaris.
Assay [11] relates to Canis familiaris. Briefly: Compound was tested ex vivo for plasma concentration ratio at 2 hr in conscious dogs at specified time intervals at a dose of 0.05 mg/kg. It counts as functional, Canis lupus familiaris.

Several values for one entry are separate records, joined by “and”; a condition that tells them apart may be missing. Identical values can stand only once. Bounds are passed on as bounds.

A word on the IC50: it is the point on the concentration scale where inhibition reaches its midpoint. By inhibition is commonly meant the percentage by which the read-out fell short of the control. Low readings indicate a weak effect, high ones a strong effect. The term pA2 denotes the negative logarithm of the molar antagonist concentration that doubles the agonist concentration needed for the same response. High values mean a more potent antagonist, low ones a weaker antagonist.

`N#Cc1ccc([C@H]2OC[C@@H](C/C=C\CCC(=O)OCCCCCCOC(=O)CC/C=C\C[C@@H]3CO[C@H](c4ccc(C#N)cc4)O[C@@H]3c3ccccc3O)[C@@H](c3cccnc3)O2)cc1`: the Kb on Thromboxane A2 receptor is 10 µM. Also, on Thromboxane-A synthase, the IC50 was greater than 10 µM.
For the compound `N#Cc1ccc([C@H]2OC[C@@H](C/C=C\CCC(=O)OCCOC(=O)CC/C=C\C[C@@H]3CO[C@H](c4ccc(C#N)cc4)O[C@@H]3c3ccccc3O)[C@@H](c3cccnc3)O2)cc1`, the Kb at Thromboxane A2 receptor was greater than 10 µM. The IC50 on Thromboxane-A synthase is greater than 10 µM.
Regarding `N#Cc1ccc([C@H]2OC[C@@H](C/C=C\CCC(=O)Oc3ccccc3OC(=O)CC/C=C\C[C@@H]3CO[C@H](c4ccccc4Cl)O[C@@H]3c3ccccc3O)[C@@H](c3cccnc3)O2)cc1` (stereo in doubt; 16 (-)) [listing 1 of 2 here], the Kb on Thromboxane A2 receptor is 10 µM. The Ratio with Canis familiaris [1] (0.05 mg/kg) is 150; with Canis familiaris [2] (0.05 mg/kg), 35. This compound showed a concentration for half-maximal inhibition (IC50) against Thromboxane-A synthase greater than 10 µM.
Consider `N#Cc1ccc([C@H]2OC[C@@H](C/C=C\CCC(=O)NCCNC(=O)CC/C=C\C[C@@H]3CO[C@H](c4ccc(C#N)cc4)O[C@@H]3c3ccccc3O)[C@@H](c3cccnc3)O2)cc1`, for which the Kb at Thromboxane A2 receptor was 10 µM. On Thromboxane-A synthase, this compound gave an IC50 greater than 10 µM.
In the case of `N#Cc1ccc([C@H]2OC[C@@H](C/C=C\CCC(=O)O)[C@@H](c3cccnc3)O2)cc1`, at Thromboxane A2 receptor, the Kb is 1.26 µM. Further, the inhibition in assay [3] is 84%; in [5], 93%; in [7], 97% and 84%. Besides, the Ratio in the assay on Canis familiaris [4] is reported as 1.4; in the assay on Canis familiaris [6] it was 1.3. At Thromboxane-A synthase, this compound yielded an IC50 of 0.02 µM.
Regarding `N#Cc1ccc([C@H]2OC[C@@H](C/C=C\CCC(=O)Oc3ccccc3OC(=O)CC/C=C\C[C@@H]3CO[C@H](c4ccccc4Cl)O[C@@H]3c3ccccc3O)[C@@H](c3cccnc3)O2)cc1` (stereo in doubt; 15) [listing 1 of 2 here], the inhibition in assay [8] was 54%; in assay [9] it was 57%.
Consider `N#Cc1ccc([C@H]2OC[C@@H](C/C=C\CCC(=O)Oc3ccccc3OC(=O)CC/C=C\C[C@@H]3CO[C@H](c4ccccc4Cl)O[C@@H]3c3ccccc3O)[C@@H](c3cccnc3)O2)cc1` (stereo in doubt; 16 (-)) [listing 2 of 2 here], for which the inhibition was found to be 31% in assay [8] and 64% in assay [9].
As for `N#Cc1ccc([C@H]2OC[C@@H](C/C=C\CCC(=O)O)[C@@H](c3ccccc3O)O2)cc1`, at Thromboxane A2 receptor, the Kb is 0.00501 µM. Also, the Ratio in the assay on Canis familiaris [10] is 35; with Canis familiaris [11], 60. Besides, the inhibition in assay [8] and in assay [9] was greater than 50% in each case. This compound also displayed a half-maximal inhibitory concentration (IC50) against Thromboxane-A synthase greater than 10 µM.
In turn, `N#Cc1ccc([C@H]2OC[C@@H](C/C=C\CCC(=O)Oc3ccccc3OC(=O)CC/C=C\C[C@@H]3CO[C@H](c4ccccc4Cl)O[C@@H]3c3ccccc3O)[C@@H](c3cccnc3)O2)cc1` (stereo in doubt; 15) [listing 2 of 2 here] returned a pA2 at Thromboxane A2 receptor of 5. Also, the Ratio in the assay with Canis familiaris [1] (0.05 mg/kg) came to 170; with Canis familiaris [2] (0.05 mg/kg), 140. At Thromboxane-A synthase, this compound gave an IC50 greater than 10 µM.
For `N#Cc1ccc([C@H]2OC[C@@H](C/C=C\CCC(=O)Oc3ccccc3OC(=O)CC/C=C\C[C@@H]3CO[C@H](c4ccc(C#N)cc4)O[C@@H]3c3ccccc3O)[C@@H](c3cccnc3)O2)cc1`, the Kb on Thromboxane A2 receptor is 10 µM. Also, the results for the Ratio in the assay on Canis familiaris [1] and in the assay with Canis familiaris [2] were 283 and 587, respectively. Moreover, the inhibition in [8] was 68%; in assay [9] it was less than 50%. This compound also gave an IC50 against Thromboxane-A synthase greater than 10 µM.
Turning to `N#Cc1ccc([C@H]2OC[C@@H](C/C=C\CCC(=O)Oc3ccc(OC(=O)CC/C=C\C[C@@H]4CO[C@H](c5ccc(C#N)cc5)O[C@@H]4c4ccccc4O)cc3)[C@@H](c3cccnc3)O2)cc1`, at Thromboxane A2 receptor, the Kb was 10 µM. Moreover, the IC50 at Thromboxane-A synthase was greater than 10 µM.
`O=C(O)CC/C=C\C[C@@H]1CO[C@H](c2ccccc2Cl)O[C@@H]1c1ccccc1O`: the inhibition in assay [8] and in assay [9] was greater than 50% in each case. For the same compound, on Thromboxane-A synthase, the IC50 was greater than 10 µM.
As to `N#Cc1ccc([C@H]2OC[C@@H](C/C=C\CCC(=O)NCCCCCCNC(=O)CC/C=C\C[C@@H]3CO[C@H](c4ccc(C#N)cc4)O[C@@H]3c3ccccc3O)[C@@H](c3cccnc3)O2)cc1`, on Thromboxane A2 receptor, the Kb was 10 µM. On Thromboxane-A synthase, this compound gave an IC50 greater than 10 µM.

Values taken from ChEMBL document CHEMBL1129776, “Design of dual-acting thromboxane antagonist-synthase inhibitors by a mutual prodrug approach” (Bioorg Med Chem Lett, 1996).
